Like-named read-outs stand apart in the source and are kept apart here.
Experiments:
human DGKα = target: T1, human DGKα (Homo sapiens, UniProt P23743); assay: DGKα LIPGLO assay (extruded liposome substrate), in vitro DGK inhibition; type: biochemical; settings: read-out: DGKa LIPGLO IC50
T1 construct: TVMV protease cleavage site (C); Hexa-His (C); made in house; host or cells: Sf9 insect cells (baculovirus, Bac-to-Bac)

human DGKζ = target: T2, human DGKζ (Homo sapiens, UniProt Q13574); assay: DGKζ LIPGLO assay (extruded liposome substrate), in vitro DGK inhibition; type: biochemical; settings: read-out: DGKz LIPGLO IC50
T2 construct: TVMV protease cleavage site (C); Hexa-His (C); made in house; host or cells: Sf9 insect cells (baculovirus, Bac-to-Bac)
T2 sequence (Q13574 with tags, fused parts or gaps isoform Q13574-4): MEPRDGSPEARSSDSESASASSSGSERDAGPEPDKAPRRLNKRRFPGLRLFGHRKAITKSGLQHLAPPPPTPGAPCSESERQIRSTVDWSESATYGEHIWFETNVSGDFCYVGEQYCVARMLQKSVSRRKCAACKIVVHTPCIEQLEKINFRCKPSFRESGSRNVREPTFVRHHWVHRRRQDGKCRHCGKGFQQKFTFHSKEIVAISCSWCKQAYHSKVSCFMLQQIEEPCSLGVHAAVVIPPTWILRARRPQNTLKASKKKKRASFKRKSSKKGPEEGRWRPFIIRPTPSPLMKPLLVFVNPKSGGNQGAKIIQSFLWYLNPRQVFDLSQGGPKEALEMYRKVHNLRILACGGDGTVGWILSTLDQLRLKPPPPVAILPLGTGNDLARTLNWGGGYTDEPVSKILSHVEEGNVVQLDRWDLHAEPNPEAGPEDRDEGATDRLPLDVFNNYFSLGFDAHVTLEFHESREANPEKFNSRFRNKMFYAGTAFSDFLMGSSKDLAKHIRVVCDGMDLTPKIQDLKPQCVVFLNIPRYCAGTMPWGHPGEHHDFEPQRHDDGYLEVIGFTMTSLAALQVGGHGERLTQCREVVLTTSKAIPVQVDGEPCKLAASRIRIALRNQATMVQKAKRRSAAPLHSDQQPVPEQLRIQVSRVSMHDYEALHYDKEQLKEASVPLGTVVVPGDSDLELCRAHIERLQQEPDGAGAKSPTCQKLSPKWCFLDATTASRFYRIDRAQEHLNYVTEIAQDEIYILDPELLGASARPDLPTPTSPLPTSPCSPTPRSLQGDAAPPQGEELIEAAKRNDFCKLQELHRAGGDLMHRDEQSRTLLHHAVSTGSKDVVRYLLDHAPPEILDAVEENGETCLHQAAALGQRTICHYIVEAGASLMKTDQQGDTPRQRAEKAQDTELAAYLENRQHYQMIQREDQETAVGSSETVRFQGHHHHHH

Human venous whole blood = assay: Human whole blood IFN-γ assay; type: cell-based; settings: human whole blood, read-out: INFg Whole Blood Normalized Agonist EC50;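 also: blood from healthy donors exposed to compound for 1 h before stimulation with anti-CD3 and anti-CD28 at 1 µg/mL each, IFN-γ quantified in supernatant by AlphaLISA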
[1] = Homo sapiens, 24 h, normalized to 3 μM reference compound with anti-CD3 plus anti-CD28 as 100% activation
[2] = anti-CD3 plus anti-CD28, 24 hours, 3 μM reference compound = 100% activation
[3] = Homo sapiens, 24 h, anti-CD3 plus anti-CD28, 24 hours, 3 μM reference compound = 100% activation
[4] = normalized to 3 μM reference compound with anti-CD3 plus anti-CD28 as 100% activation

T1 sequence (P23743 with tags, fused parts or gaps): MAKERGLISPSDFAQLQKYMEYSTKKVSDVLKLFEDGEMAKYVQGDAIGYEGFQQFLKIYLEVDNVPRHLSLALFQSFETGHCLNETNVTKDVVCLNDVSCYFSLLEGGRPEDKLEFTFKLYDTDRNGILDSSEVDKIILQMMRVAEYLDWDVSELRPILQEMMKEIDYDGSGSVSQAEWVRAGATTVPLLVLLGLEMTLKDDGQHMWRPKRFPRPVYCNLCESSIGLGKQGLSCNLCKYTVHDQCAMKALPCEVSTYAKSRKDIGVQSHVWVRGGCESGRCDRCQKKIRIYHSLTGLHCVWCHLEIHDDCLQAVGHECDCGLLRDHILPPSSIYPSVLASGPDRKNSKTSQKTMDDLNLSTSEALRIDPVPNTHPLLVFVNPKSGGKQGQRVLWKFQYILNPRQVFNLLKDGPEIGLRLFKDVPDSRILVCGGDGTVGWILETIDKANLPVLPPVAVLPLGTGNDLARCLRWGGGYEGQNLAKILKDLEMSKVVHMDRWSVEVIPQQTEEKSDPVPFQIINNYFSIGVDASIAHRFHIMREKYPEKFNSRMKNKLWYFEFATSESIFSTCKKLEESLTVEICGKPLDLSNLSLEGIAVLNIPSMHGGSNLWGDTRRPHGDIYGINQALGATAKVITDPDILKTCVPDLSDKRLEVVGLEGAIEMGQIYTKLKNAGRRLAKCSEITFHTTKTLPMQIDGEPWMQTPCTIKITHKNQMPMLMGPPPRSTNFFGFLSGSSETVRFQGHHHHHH

Row | SMILES | IC50 (human DGKα; liposome (LIPGLO) assay) [µM] | IC50 (human DGKζ; liposome (LIPGLO) assay) [µM] | IC50 (human DGKα; DGKα liposome (LIPGLO) assay) [µM] | IC50 (human DGKζ; DGKζ liposome (LIPGLO) assay) [µM] | EC50 (Human venous whole blood; [1]) [µM] | EC50 (Human venous whole blood; [2]) [µM] | EC50 (Human venous whole blood; [3]) [µM] | EC50 (Human venous whole blood; [4]) [µM]
1 | C[C@H]1CN(C(c2ccc(F)cc2)c2ccc(F)cc2)[C@H](CNS(C)(=O)=O)CN1c1cc(=O)n(C)c2ccc(C#N)nc12 [Example 1410, N-(((2S,5S)-1-(bis(4-fluorophenyl)methyl)-4-(6-cyano-1-methyl-2-oxo-1,2-dihydro-1,5-naphthyridin-4-yl)-5-methylpiperazin-2-yl)methyl)methanesulfonamide] | 22 | 0.098 | – | – | 1.8 | – | – | –
2 | CCc1ccc(C(c2ccc(F)cc2)N2CCN(c3c(C#N)c(=O)n(C)c4ccc(C#N)nc34)C[C@H]2C)cc1 (stereo partly drawn) [Example 884] | – | – | 4.6 | 2.4 | – | – | 2.2 | –
3 | C[C@@H]1CN(c2cc(=O)n(C)c3ccc(C#N)nc23)[C@@H](C)CN1C(c1ccc(F)cc1)c1csc(C2CC2)n1 (single isomer, unassigned) [Example 724] | – | – | 0.084 | 0.098 | – | 0.26 | – | –
4 | COCC(c1ccc(C(F)(F)F)cn1)N1C[C@H](C)N(c2cc(=O)n(C)c3ccc(C#N)nc23)C[C@H]1C (single isomer, unassigned) [Example 1278] | 0.22 | 0.4 | – | – | – | – | – | 2
5 | Cc1ccc(C(c2ccc(F)cc2)N2C[C@H](C)N(c3c(C#N)c(=O)n(C)c4ccc(C#N)nc34)C[C@H]2C)cc1 (stereo partly drawn) [Example 818] | – | – | 58 | 7.3 | – | 4.2 | – | –
6 | CC[C@@H]1CN(c2cc(=O)n(C)c3ccc(C#N)nc23)[C@@H](C)CN1Cc1ccccc1 [Example 1076] | 0.11 | 1 | – | – | 1.7 | – | – | –
7 | C[C@@H]1CN(c2c(C#N)c(=O)n(C)c3ccc(C#N)nc23)[C@@H](C)CN1C(c1ccc(Cl)cc1)c1ncccc1F (single isomer, unassigned) [Example 819] | – | – | 2.3 | 2.9 | – | – | 2.2 | –
8 | CC[C@H]1CN(C(C)c2ccc(F)c(F)c2)[C@H](C)CN1c1cc(=O)n(C)c2ccc(C#N)nc12 (single isomer, unassigned) [Example 1139] | 0.064 | 0.1 | – | – | – | – | – | 1.1
9 | C[C@@H]1CN(c2c(C#N)c(=O)n(C)c3ccc(C#N)nc23)CCN1C(c1cccc(F)c1)c1ccc(C(F)(F)F)cn1 (single isomer, unassigned) [Example 948] | – | – | 0.6 | 0.31 | – | 0.34 | – | –
10 | CC[C@H]1CN(C(c2ccc(Cl)cc2)c2ccc(F)cn2)[C@H](C)CN1c1cc(=O)n(C)c2ccc(C#N)nc12 (single isomer, unassigned) [Example 1130] | 0.17 | 0.43 | – | – | – | – | – | 0.28
11 | CC(c1ccc(OC(F)(F)F)cc1F)N1C[C@H](C)N(c2cc(=O)n(C)c3ccc(C#N)nc23)C[C@H]1C (stereo partly drawn) [Example 437, 8-((2S,5R)-4-(1-(2-fluoro-4-(trifluoromethoxy)phenyl)ethyl)-2,5-dimethylpiperazin-1-yl)-5-methyl-6-oxo-5,6-dihydro-1,5-naphthyridine-2-carbonitrile] | 0.4 | 0.67 | – | – | 0.54 | – | – | –
12 | C[C@@H]1CN(c2c(C#N)c(=O)n(C)c3ccc(C#N)nc23)CCN1C(c1ccc(F)cc1)c1nccs1 (single isomer, unassigned) [Example 1024] | 0.44 | 2.2 | – | – | 1.2 | – | – | –
13 | C[C@@H]1CN(c2cc(=O)n(C)c3ccc(C#N)nc23)[C@@H](C)CN1C(c1ccc(F)cc1)c1nc(C(F)F)no1 (stereo partly drawn) [Example 743] | – | – | 0.12 | 1.6 | – | – | 0.42 | –
14 | CC[C@@H]1CN(c2cc(=O)n(C)c3ccc(C#N)nc23)[C@@H](C)CN1C(c1ccc(F)cc1)c1cccc(C(F)(F)F)n1 (stereo partly drawn) [Example 1113] | 0.62 | 0.31 | – | – | – | – | – | 1
15 | CC[C@H]1CN(C(C)c2ccc(OC)cc2)[C@H](CC)CN1c1cc(=O)n(C)c2ccc(C#N)nc12 (single isomer, unassigned) [Example 1367] | 0.17 | 2.9 | – | – | – | – | – | 1.9
16 | Cc1ccc(C(c2cccc(F)c2)N2C[C@H](C)N(c3cc(=O)n(C)c4ccc(C#N)nc34)C[C@H]2C)cn1 (stereo partly drawn) [Example 417, 8-((2S,5R)-4-((3-fluorophenyl)(6-methylpyridin-3-yl)methyl)-2,5-dimethylpiperazin-1-yl)-5-methyl-6-oxo-5,6-dihydro-1,5-naphthyridine-2-carbonitrile] | 20 | 11 | – | – | – | – | – | 7.7
17 | CCC(c1ccc(OC(F)(F)F)cc1)N1C[C@H](C)N(c2cc(=O)n(C)c3ccc(C#N)nc23)C[C@H]1CC (single isomer, unassigned) [Example 1198] | 0.99 | 1.1 | – | – | – | – | – | 1.7
18 | C[C@@H]1CN(c2cc(=O)n(C)c3ccc(C#N)nc23)[C@@H](C)CN1C(c1c(F)cc(O)cc1F)C(F)(F)F (single isomer, unassigned) [Example 627] | 5.4 | 5.9 | – | – | 5.1 | – | – | –
19 | COC(=O)C1CN(c2cc(=O)n(C)c3ccc(C#N)nc23)CCN1C(c1ccc(F)cc1)c1ccc(F)cc1OC (single isomer, unassigned) [Example 70, Methyl 4-(6-cyano-1-methyl-2-oxo-1,2-dihydro-1,5-naphthyridin-4-yl)-1-((4-fluoro-2-methoxyphenyl)(4-fluorophenyl)methyl)piperazine-2-carboxylate] | 220 | 19 | – | – | – | – | – | 10
20 | C[C@@H]1CN(c2cc(=O)n(C)c3ccc(C#N)nc23)[C@@H](C)CN1Cc1cccc2c1cnn2C [Example 475, 8-((2S,5R)-2,5-dimethyl-4-((1-methyl-1H-indazol-4-yl)methyl)piperazin-1-yl)-5-methyl-6-oxo-5,6-dihydro-1,5-naphthyridine-2-carbonitrile] | 16 | 2 | – | – | 20 | – | – | –
21 | Cc1cccc(C(c2cccc(F)c2)N2C[C@H](C)N(c3cc(=O)n(C)c4ccc(C#N)nc34)C[C@H]2C)n1 (single isomer, unassigned) [Example 470] | 13 | 2 | – | – | 0.37 | – | – | –

More lines, main results first:

Row | IC50 (human DGKα; liposome (LIPGLO) assay) [µM] | IC50 (human DGKζ; liposome (LIPGLO) assay) [µM] | IC50 (human DGKα; DGKα liposome (LIPGLO) assay) [µM] | IC50 (human DGKζ; DGKζ liposome (LIPGLO) assay) [µM] | SMILES | EC50 (Human venous whole blood; [1]) [µM] | EC50 (Human venous whole blood; [2]) [µM] | EC50 (Human venous whole blood; [3]) [µM] | EC50 (Human venous whole blood; [4]) [µM]
22 | – | – | 0.049 | 0.62 | C[C@@H]1CN(c2cc(=O)n(C)c3ccc(C#N)nc23)[C@@H](C)CN1C(c1ccc(F)cc1)c1nc(C(F)F)no1 (stereo partly drawn) [Example 744] | – | 0.31 | – | –
23 | 0.084 | 1.4 | – | – | CC[C@@H]1CN(c2cc(=O)n(C)c3ccc(C#N)nc23)[C@@H](C)CN1C(c1ccc(F)cc1)c1ccon1 (single isomer, unassigned) [Example 1115] | – | – | – | 0.8
24 | 0.63 | 0.04 | – | – | CC[C@@H]1CN(c2cc(=O)n(C)c3ccc(C#N)nc23)[C@@H](C)CN1C(C)c1ccc(C2CC2)cc1F (single isomer, unassigned) [Example 1340] | – | – | – | 0.08
25 | – | – | 6.7 | 6.6 | CC(c1ccc(C(F)(F)F)cc1)N1CCN(c2c(C#N)c(=O)n(C)c3ccc(C#N)nc23)C[C@H]1C (single isomer, unassigned) [Example 960] | – | – | 20 | –
26 | 0.36 | 0.13 | – | – | COC[C@@H]1CN(c2cc(=O)n(C)c3ccc(C#N)nc23)[C@@H](C)CN1C(C)c1ccc(F)cc1 (single isomer, unassigned) [Example 1159] | 0.3 | – | – | –
27 | – | – | 0.18 | 3.4 | CC(c1ccc(F)cc1)N1C[C@H](C)N(c2c(C#N)c(=O)n(C)c3ccc(C#N)nc23)C[C@H]1C (single isomer, unassigned) [Example 782] | – | – | 1.1 | –
28 | 2.5 | 2 | – | – | CC[C@H]1CN(C(C)c2ccc(C(F)(F)F)cc2)[C@H](CC)CN1c1cc(=O)n(C)c2ccc(C#N)nc12 (single isomer, unassigned) [Example 1052] | – | – | – | 0.19
29 | – | – | 5 | 2.6 | C[C@@H]1CN(c2c(C#N)c(=O)n(C)c3ccc(C#N)nc23)[C@@H](C)CN1C(c1ccccc1)c1ccc(F)cc1 (stereo partly drawn) [Example 807] | – | – | 2.5 | –
30 | 13 | 0.67 | – | – | CC(c1cc(F)cc(OC(F)(F)F)c1)N1C[C@H](C)N(c2cc(=O)n(C)c3ccc(C#N)nc23)C[C@H]1C (single isomer, unassigned) [Example 1211] | – | – | – | 8.3

Source: patent publication US10669272B2, “Substituted naphthyridinone compounds useful as T cell activators” (BRISTOL-MYERS SQUIBB COMPANY, priority 2018, dated 2020)
